Where two headings read alike, the source gives them in different places.
How the values were obtained:
Format in all cases: in vivo
[1] = test system: Lolium perenne (LOLPE); assay: Glasshouse assay for herbicidal activity, pre-/post-emergence (percentage phytotoxicity); settings: Rate 250 g/ha, 100%=total damage, 0%=no damage; for pest or weed control at 250 g/ha: Lolium perenne
Method: (§1) Seeds of a variety of monocotyledonous and dicotyledonous test plants are sown in standard soil in pots. The plants are cultivated for one day (for pre-emergence) or for about 12 days (for post-emergence) under controlled conditions in a glasshouse (warm climate species at 24/18° C., cool climate species at 20/16° C., both at day/night; 16 hours light; 65% humidity). The test plants are then grown on, in a glasshouse (greenhouse) under controlled conditions (warm climate species at 24/18° C., cool climate species at 20/16° C., both at day/night; 16 hours light; 65% humidity) and are watered twice daily. 15 days after application of the test herbicide (15DAA) (for post-emergence), and 20 days after application of the test herbicide (20DAA) (for pre-emergence), the test plants are evaluated visually, and an assessed percentage phytotoxicity score is given for each herbicidal application on each plant species (with 100%=total damage to plant; 0%=no damage to plant). The plant species tested are as follows: Alopecurus myosuroides (ALOMY), Avena fatua (AVEFA), Lolium perenne (LOLPE), Echinochloa crus-galli (ECHCG).

[2] = test system: Alopecurus myosuroides (ALOMY); assay: as above; settings: Rate 250 g/ha, 100%=total damage, 0%=no damage; for pest or weed control at 250 g/ha: Alopecurus myosuroides
Method: as §1

[3] = test system: Echinochloa crus-galli (ECHCG); assay: as above; settings: Echinochloa crus-galli, Rate 250 g/ha, 100%=total damage, 0%=no damage
Method: as §1

[4] = test system: Avena fatua (AVEFA); assay: as above; settings: Rate 250 g/ha, 100%=total damage, 0%=no damage; for pest or weed control at 250 g/ha: Avena fatua
Method: as §1

[5] = test system: wheat; assay: Post-emergence herbicidal activity against cereal crops (wheat) +/- safener, crop selectivity; settings: 100%=total damage to plant, 0%=no damage; for Post-emergence herbicidal activity against wheat (percentage phytotoxicity), +CQC: 250 g/ha, plus safener cloquintocet-mexyl (CQC) applied at 50 g/ha; for percent phytotoxicity (crop damage) to wheat at 250 g/ha: Triticum aestivum, 360 h, without safener, read-out: Post-emergence herbicidal activity against wheat (percentage phytotoxicity), Wheat - CQC
Method: as §1, with “plant).” for “plant). The plant species tested are as follows: Alopecurus myosuroides (ALOMY), Avena fatua (AVEFA), Lolium perenne (LOLPE), Echinochloa crus-galli (ECHCG).”

[6] = post-emergence, 360 h, post-emergence, visual assessment 15 DAA, read-out: Post-emergence herbicidal activity (percentage phytotoxicity), LOLPE POST
[7] = pre-emergence, 480 h, pre-emergence, visual assessment 20 DAA, read-out: Pre-emergence herbicidal activity (percentage phytotoxicity), LOLPE PRE
[8] = 360 h, post-emergence, visual assessment 15 DAA, read-out: Post-emergence herbicidal activity (percentage phytotoxicity), ALOMY POST
[9] = 480 h, pre-emergence, visual assessment 20 DAA, read-out: Pre-emergence herbicidal activity (percentage phytotoxicity), ALOMY PRE
[10] = post-emergence, 360 h, post-emergence, visual assessment 15 DAA, read-out: Post-emergence herbicidal activity (percentage phytotoxicity), ECHCG POST
[11] = pre-emergence, 480 h, pre-emergence, visual assessment 20 DAA, read-out: Pre-emergence herbicidal activity (percentage phytotoxicity), ECHCG PRE
[12] = post-emergence, 360 h, post-emergence, visual assessment 15 DAA, read-out: Post-emergence herbicidal activity (percentage phytotoxicity), AVEFA POST
[13] = pre-emergence, 480 h, pre-emergence, visual assessment 20 DAA, read-out: Pre-emergence herbicidal activity (percentage phytotoxicity), AVEFA PRE
[14] = post-emergence, visual assessment 15 DAA
[15] = pre-emergence, visual assessment 20 DAA

SMILES	pest or weed control at 250 g/ha [1, 6]	pest or weed control at 250 g/ha [1, 7]	pest or weed control at 250 g/ha [2, 8]	pest or weed control at 250 g/ha [2, 9]	pest or weed control at 250 g/ha [3, 10]	pest or weed control at 250 g/ha [3, 11]	pest or weed control at 250 g/ha [4, 12]	pest or weed control at 250 g/ha [4, 13]	Post-emergence herbicidal activity against wheat (percentage phytotoxicity), +CQC [5]	percent phytotoxicity (crop damage) to wheat at 250 g/ha [5]	Post-emergence herbicidal activity (percentage phytotoxicity), LOLPE POST [1, 14]	Pre-emergence herbicidal activity (percentage phytotoxicity), LOLPE PRE [1, 15]	Post-emergence herbicidal activity (percentage phytotoxicity), ALOMY POST [2, 14]	Pre-emergence herbicidal activity (percentage phytotoxicity), AVEFA PRE [4, 15]
Cc1cc(C)c(C2C(=O)CC(CCNC(=O)NC(=O)c3ccccn3)C2=O)c(C)c1 (stereo not drawn) [Compound A1, N-[2-[2,4-dioxo-3-(2,4,6-trimethylphenyl)cyclopentyl]ethylcarbamoyl]pyridine-2-carboxamide]	90%	100%	90%	80%	80%	100%	90%	60%	20%	80%				
Cc1cc(C)c(C2C(=O)CC(CCNC(=O)Nc3cc(C(F)(F)F)ccn3)C2=O)c(C)c1.Cl (stereo not drawn) [Compound A2, 1-[2-[2,4-dioxo-3-(2,4,6-trimethylphenyl)cyclopentyl]ethyl]-3-[4-(trifluoromethyl)-2-pyridyl]urea]	100%	80%	80%	70%	100%	90%	100%	80%	80%	80%				
Cc1cc(C)c(C2C(=O)CC(CCNC(=O)Nc3ccccn3)C2=O)c(C)c1.Cl (stereo not drawn) [Compound A3]	100%	90%	100%	100%	100%	100%	90%	80%	60%	90%				
Cc1cc(C)c(C2C(=O)CC(CCNC(=O)Nc3ccc(Br)cn3)C2=O)c(C)c1.Cl (stereo not drawn) [Compound A4]	100%	80%	90%	80%	90%	60%	100%	70%	50%	90%				
Cc1cc(C)c(C2C(=O)CC(CCNC(=O)NC(C)(C)C)C2=O)c(C)c1 (stereo not drawn) [Compound A5]	90%	90%	80%	100%	100%	90%	90%	80%	20%	50%				
Cc1cc(C)c(C2C(=O)CC(CCNC(N)=O)C2=O)c(C)c1 (stereo not drawn) [Compound A6]	90%	80%	70%	30%	100%	90%	90%	0%	10%	10%				
Cc1cc(C)c(C2C(=O)CC(CCNC(=O)NCc3ccccc3)C2=O)c(C)c1 (stereo not drawn) [Compound A7]	70%	0%	10%	0%	90%	0%	90%	0%	0%	20%				
Cc1cc(C)c(C2C(=O)CC(CCNC(=O)N(C)c3ccccc3)C2=O)c(C)c1 (stereo not drawn) [Compound A8]	90%	90%	80%	70%	80%	90%	90%	90%	10%	70%				
Cc1cc(C)c(C2C(=O)CC(CCNC(=O)Nc3ccccc3)C2=O)c(C)c1 (stereo not drawn) [Compound A9, 1-[2-[2,4-dioxo-3-(2,4,6-trimethylphenyl)cyclopentyl]ethyl]-3-phenyl-urea]	90%	80%	30%	60%	80%	80%	80%	60%	10%	40%				
Cc1cc(C)c(C2C(=O)CC(CCNC(=O)N(C)Cc3ccccc3)C2=O)c(C)c1 (stereo not drawn) [Compound A10]	90%	0%	80%	0%	90%	0%	80%	0%	20%	70%				
Cc1cc(C)c(C2C(=O)CC(CCNC(=O)N(C)c3ccccn3)C2=O)c(C)c1 (stereo not drawn) [Compound A11]	100%	100%	90%	100%	90%	100%	90%	90%	70%	80%				
Cc1cc(C)c(C2C(=O)CC(CCNC(=O)Nc3ccc(F)cn3)C2=O)c(C)c1 (stereo not drawn) [Compound A12]	90%	90%	90%	90%	90%	100%	90%	90%	80%	90%				
Cc1cc(C)c(C2C(=O)CC(CCN(C)C(=O)Nc3ccccn3)C2=O)c(C)c1 (stereo not drawn) [Compound A17]									10%	50%	40%	30%	70%	0%

— patent US10301295B2, “Herbicidal compounds” (Syngenta Participations AG, priority 2014, dated 2019)
